Assay results: US10514377B2, “Method of diagnosing and therapeutically treating a patient for a traumatic brain injury” (priority 2010, dated 2019)

Tested on: rats subjected to impact acceleration injury
Experiment: Impact acceleration injury (traumatic brain injury) in rats, GFAP immuno-fluorescence of cortex 24 hours after injury
Assay type: in vivo
Conditions: rat
Source text: FIG. 3 through 5 represent respectively, representative photomicrographs of three groups of ten rats which have been subjected to the development of traumatic brain injury through impact by a weight under experimental conditions described hereinafter.
Low and high magnification micrographs of glial fibrillary acidic proteins (GFAP) immuno-fluorescence using a laser-scanning confocal microscope produced FIGS. 3 through 5. The GFAP antibody labels the intermediate filaments of most astrocytes in the brain. These photomicrographs, which were taken 24 hours after the animals were subjected to impact acceleration injury, show areas of cortex slightly lateral to the midline. The pial surface is at the top of the images and the midline is to the left of all images. In the sham animals shown in FIG. 3, a normal distribution of GFAP labeled astrocytes is seen, including their endfeet which surround the neurovasculature. […] There is also a patchy loss of GFAP-labeled astrocytes throughout the cortex and the vasculature shown by the arrow heads (as contrasted with the full arrows) appears damaged. It should also be noted that many of the remaining astrocytes appear to be hypertrophied. The loss of all GFAP-immunoreactivity and appearance of astrocyte hypertrophy are indicative of a neuroinflammatory response to injury.
In order to provide additional information regarding the invention, experiments were performed on animals who were subjected to the impact acceleration injury described hereinbefore, with the animals subsequently being sacrificed and the brains examined 24 hours after the injury. Tests were performed with body specimens which were urinary excretion and also with blood, either blood plasma or blood serum. In each group of ten animals, all had their urine tested and six had blood tested. With the sham animals, the mean urinary excretion values of marinobufagenin were 423±130 (SE)pgMBG/mg creatinine. With the impact acceleration injury rats, the mean urinary excretion values of marinobufagenin were […]. […] These tests confirm the evaluation of marinobufagenin in both urine and blood when an impact acceleration injury is present.

[1] = 120 μg bolus about 90 minutes after injury, 24 hours after injury, FIG. 5

## C[C@]12CC[C@H](O)C[C@H]1CC[C@@H]1[C@@H]2CC[C@]2(C)[C@@H](c3ccc(=O)oc3)C[C@H]3O[C@]132 [resibufogenin]
[1]
  GFAP immunoreactivity: reduce the decrease in GFAP immunoreactivity
  appearance of GFAP labeled astrocytes (normal vs hypertrophied): a greater proportion of GFAP labeled astrocytes have a normal, rather than a hypertrophied appearance
  glial scar in cortex: no observed glial scar
120 μg bolus of resibufogenin about 90 minutes after injury, cortex examined 24 hours after injury, FIG. 5 vs FIG. 4
  alterations after impact acceleration injury (glial scar, patchy loss of GFAP-labeled astrocytes, damaged vasculature, astrocyte hypertrophy): most of these alterations are ameliorated
